Reference: patent US20220169598A1, “HALOGENATED PHENYLSULFONAMIDE HYDROXAMIC ACID COMPOUNDS, COMPOSITIONS AND USES THEREOF AS SELECTIVE HDAC6 INHIBITORS” (2681603 ONTARIO INC., priority 2019, published 2022)

Columns and labels:
HDAC11 = HDAC11 (Homo sapiens, UniProt Q96DB2); experiment: in vitro activity-based HDAC assay; assay type: biochemical; conditions: human HDAC isoform panel, Table 1
HDAC2 = HDAC2 (Homo sapiens, UniProt Q92769); experiment: in vitro activity-based HDAC assay; assay type: biochemical; conditions: human HDAC isoform panel, Table 1
HDAC2, sequence (Q92769 whole entry, canonical isoform): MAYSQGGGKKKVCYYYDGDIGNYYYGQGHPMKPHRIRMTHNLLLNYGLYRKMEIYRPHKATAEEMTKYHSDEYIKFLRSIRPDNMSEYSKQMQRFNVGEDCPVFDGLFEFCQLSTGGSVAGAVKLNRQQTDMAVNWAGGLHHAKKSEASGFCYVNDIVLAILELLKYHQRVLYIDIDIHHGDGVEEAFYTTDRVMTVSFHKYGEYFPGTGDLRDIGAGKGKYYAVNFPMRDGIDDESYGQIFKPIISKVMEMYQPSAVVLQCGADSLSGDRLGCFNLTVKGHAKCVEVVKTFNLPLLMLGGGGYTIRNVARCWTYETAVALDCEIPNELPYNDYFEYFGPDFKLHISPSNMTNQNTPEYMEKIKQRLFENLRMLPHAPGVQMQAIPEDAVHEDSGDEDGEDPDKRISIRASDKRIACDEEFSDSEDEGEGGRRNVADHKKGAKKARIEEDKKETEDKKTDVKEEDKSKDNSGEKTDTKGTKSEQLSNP

HDAC7 = target: T1, HDAC7 (Homo sapiens, UniProt Q8WUI4); experiment: in vitro activity-based HDAC assay; assay type: biochemical; conditions: human HDAC isoform panel, Table 1
T1 sequence (Q8WUI4 1-952): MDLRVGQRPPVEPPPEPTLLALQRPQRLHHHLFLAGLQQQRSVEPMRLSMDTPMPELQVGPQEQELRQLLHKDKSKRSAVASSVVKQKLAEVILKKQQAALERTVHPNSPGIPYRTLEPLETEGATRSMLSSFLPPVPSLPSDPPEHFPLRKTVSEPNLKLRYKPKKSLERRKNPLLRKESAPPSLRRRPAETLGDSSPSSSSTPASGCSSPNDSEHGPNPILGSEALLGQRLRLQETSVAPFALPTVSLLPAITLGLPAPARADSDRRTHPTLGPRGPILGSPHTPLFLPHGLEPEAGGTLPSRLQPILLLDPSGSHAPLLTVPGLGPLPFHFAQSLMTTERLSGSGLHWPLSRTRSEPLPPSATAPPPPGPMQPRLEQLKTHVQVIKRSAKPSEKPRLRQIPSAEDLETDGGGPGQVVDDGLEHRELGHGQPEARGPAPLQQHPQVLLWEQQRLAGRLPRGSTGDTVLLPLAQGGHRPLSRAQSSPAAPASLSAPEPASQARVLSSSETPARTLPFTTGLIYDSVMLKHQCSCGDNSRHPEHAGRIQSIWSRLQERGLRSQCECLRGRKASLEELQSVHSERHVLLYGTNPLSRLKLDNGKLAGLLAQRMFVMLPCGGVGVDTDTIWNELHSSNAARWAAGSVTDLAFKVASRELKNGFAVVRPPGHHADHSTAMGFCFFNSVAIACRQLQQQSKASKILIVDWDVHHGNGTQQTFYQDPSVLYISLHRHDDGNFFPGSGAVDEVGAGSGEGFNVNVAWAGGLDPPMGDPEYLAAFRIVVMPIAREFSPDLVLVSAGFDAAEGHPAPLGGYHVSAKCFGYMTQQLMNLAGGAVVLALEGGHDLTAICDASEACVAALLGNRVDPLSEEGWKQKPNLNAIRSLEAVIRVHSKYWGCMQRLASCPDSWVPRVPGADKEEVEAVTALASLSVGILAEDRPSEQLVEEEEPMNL

HDAC8 = HDAC8 (Homo sapiens, UniProt Q9BY41); experiment: in vitro activity-based HDAC assay; assay type: biochemical; conditions: human HDAC isoform panel, Table 1
HDAC8, sequence (Q9BY41 whole entry, canonical isoform): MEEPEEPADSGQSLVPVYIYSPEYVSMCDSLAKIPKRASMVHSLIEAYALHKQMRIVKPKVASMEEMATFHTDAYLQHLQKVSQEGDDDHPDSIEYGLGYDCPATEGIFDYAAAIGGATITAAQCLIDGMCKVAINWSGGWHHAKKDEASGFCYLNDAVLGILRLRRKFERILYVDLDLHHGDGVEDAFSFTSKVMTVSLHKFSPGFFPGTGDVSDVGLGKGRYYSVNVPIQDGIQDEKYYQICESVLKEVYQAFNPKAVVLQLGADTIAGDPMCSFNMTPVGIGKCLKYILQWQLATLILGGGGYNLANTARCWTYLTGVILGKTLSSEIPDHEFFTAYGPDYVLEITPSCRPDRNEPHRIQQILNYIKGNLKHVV

K562 = experiment: Cytotoxicity in cell lines; assay type: cell-based; conditions: Homo sapiens, K562; Table 4; read-out: IC50 K562
Experimental: (§1) The cytotoxicity of exemplary compounds of the application was tested in multiple cell lines including MV-4-11, MOLM-13, MCF-7, MRC9, K562 and MM.1S. The therapeutic index was evaluated by determining the toxicity of the exemplary compounds in healthy cell lines including fibroblasts and HUVEC.

MOLM-13 = experiment: Cytotoxicity in cell lines; assay type: cell-based; conditions: Homo sapiens, MOLM-13; Table 4; read-out: IC50 MOLM-13
Experimental: as §1

MRC9 = experiment: Cytotoxicity in cell lines; assay type: cell-based; conditions: Table 4
Experimental: as §1

HeLa cells = experiment: Immunofluorescence analysis of α-tubulin and histone H3 acetylation; assay type: cell-based; conditions: 6 h treatment
Text: Similar analysis is shown for exemplary compound I-34 in FIG. 19.

HDAC6 = target: T2, HDAC6 (Homo sapiens, UniProt Q9UBN7); experiment: Enzyme kinetic parameters, time-based experiments; assay type: biochemical
T2 sequence (Q9UBN7 1-1215): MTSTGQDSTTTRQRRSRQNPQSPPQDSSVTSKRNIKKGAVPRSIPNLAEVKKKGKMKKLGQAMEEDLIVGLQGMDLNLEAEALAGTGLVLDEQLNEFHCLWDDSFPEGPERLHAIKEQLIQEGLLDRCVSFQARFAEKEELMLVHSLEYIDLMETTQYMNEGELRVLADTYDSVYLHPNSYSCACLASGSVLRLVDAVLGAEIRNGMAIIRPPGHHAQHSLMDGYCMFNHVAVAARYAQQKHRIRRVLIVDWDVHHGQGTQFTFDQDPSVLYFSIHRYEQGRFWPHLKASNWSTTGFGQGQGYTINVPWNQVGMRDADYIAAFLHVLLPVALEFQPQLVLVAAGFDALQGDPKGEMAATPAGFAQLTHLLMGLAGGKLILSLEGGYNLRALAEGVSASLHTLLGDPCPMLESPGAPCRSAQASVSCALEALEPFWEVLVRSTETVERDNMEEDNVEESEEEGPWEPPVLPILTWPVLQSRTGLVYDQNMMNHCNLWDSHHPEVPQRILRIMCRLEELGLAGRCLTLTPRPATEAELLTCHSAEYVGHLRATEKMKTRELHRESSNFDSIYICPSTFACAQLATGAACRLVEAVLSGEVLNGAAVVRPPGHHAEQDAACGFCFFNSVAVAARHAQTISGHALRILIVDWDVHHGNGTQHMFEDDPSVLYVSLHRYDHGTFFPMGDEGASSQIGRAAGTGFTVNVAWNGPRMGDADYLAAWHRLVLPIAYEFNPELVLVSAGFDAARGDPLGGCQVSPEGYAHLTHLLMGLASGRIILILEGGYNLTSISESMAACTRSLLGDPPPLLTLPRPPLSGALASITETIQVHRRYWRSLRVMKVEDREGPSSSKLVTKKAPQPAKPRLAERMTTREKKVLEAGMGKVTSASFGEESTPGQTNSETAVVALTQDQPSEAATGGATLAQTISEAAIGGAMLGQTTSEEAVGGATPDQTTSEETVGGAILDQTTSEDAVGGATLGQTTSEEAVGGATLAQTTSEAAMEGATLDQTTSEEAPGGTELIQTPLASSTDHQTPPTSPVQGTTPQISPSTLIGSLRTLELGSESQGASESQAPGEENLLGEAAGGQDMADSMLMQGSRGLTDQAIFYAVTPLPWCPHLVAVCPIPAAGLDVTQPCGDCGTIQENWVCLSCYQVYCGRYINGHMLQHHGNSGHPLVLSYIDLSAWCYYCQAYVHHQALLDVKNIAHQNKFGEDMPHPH
Experimental: To determine the kinetic parameters for the formation and maintenance of the HDAC6:1-18 complex, several time-based experiments were performed, which are shown in Table 2.

panel of 97 kinases = experiment: Kinome screen; assay type: biochemical; conditions: kinase screen

HDAC11, sequence (Q96DB2 whole entry, canonical isoform): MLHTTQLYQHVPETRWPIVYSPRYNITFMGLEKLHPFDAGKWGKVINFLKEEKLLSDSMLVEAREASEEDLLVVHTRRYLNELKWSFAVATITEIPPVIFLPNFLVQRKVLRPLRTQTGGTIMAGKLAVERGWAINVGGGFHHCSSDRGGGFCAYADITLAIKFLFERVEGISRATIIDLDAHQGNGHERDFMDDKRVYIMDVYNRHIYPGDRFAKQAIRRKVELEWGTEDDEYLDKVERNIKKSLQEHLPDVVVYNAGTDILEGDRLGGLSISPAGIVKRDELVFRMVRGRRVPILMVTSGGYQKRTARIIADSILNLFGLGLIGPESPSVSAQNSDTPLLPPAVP

Row | Structure (SMILES) | IC50 (HDAC11) | IC50 (HDAC2) | IC50 (HDAC7) | IC50 (HDAC8) | IC50 (K562) | IC50 (MOLM-13) | IC50 (MRC9) | effect on α-tubulin acetylation (immunofluorescence) (HeLa cells) | Ki (HDAC6; HDAC6) | IC50 (HDAC6; HDAC6, no preincubation) | inhibitory activity on a panel of 97 kinases (panel of 97 kinases)
1 | O=C(NO)c1ccc(CN(C2CC2)S(=O)(=O)c2cc(F)c(F)c(F)c2F)cc1 [Compound I-13, 4-((N-cyclopropyl-2,3,4,5-tetrafluorophenylsulfonamido)methyl)-N-hydroxybenzamide] | > 1000 nM | > 1000 nM | > 1000 nM | 334 nM | 7400 nM | 2000 nM | > 50000 nM | substantially strong effect on tubulin acetylation |  |  | 
2 | O=C(NO)c1ccc(CN(Cc2cccnc2)S(=O)(=O)c2cc(F)c(F)c(F)c2F)cc1 [Compound I-18, N-hydroxy-4-((2,3,4,5-tetrafluoro-N-(pyridin-3-ylmethyl)phenylsulfonamido)methyl)benzamide] | > 1000 nM | > 1000 nM | > 1000 nM | 316 nM |  |  |  |  | 1.4 nM | 4 nM | limited to no inhibitory activity
